# Measurements reported in PMC5567267, “Discovery of a potent protein kinase D inhibitor: insights in the binding mode of pyrazolo[3,4-d]pyrimidine analogues” (MedChemComm, 2017).
# Where two headings read alike, the source gives them in different places.
# Experiments:
# PKD = tested on: PKD; parameters: method as in Wang group; conditions: previously reported value; different assay setup and enzyme preparation; ref Wang group; cited from earlier work
# PKD2 [1] = target: T1, PKD2 (Homo sapiens, UniProt Q9BZL6); assay: PKD2 screening assay (in vitro radiometric kinase assay); type: biochemical; conditions: for remaining activity at 1 µM: 10 min
# T1 construct: made in house; host or cells: HEK293T cells, transient transfection with pDEST27-PRKD2, stimulated with 500 nM PDB before lysis
# T1 sequence (Q9BZL6 1-878): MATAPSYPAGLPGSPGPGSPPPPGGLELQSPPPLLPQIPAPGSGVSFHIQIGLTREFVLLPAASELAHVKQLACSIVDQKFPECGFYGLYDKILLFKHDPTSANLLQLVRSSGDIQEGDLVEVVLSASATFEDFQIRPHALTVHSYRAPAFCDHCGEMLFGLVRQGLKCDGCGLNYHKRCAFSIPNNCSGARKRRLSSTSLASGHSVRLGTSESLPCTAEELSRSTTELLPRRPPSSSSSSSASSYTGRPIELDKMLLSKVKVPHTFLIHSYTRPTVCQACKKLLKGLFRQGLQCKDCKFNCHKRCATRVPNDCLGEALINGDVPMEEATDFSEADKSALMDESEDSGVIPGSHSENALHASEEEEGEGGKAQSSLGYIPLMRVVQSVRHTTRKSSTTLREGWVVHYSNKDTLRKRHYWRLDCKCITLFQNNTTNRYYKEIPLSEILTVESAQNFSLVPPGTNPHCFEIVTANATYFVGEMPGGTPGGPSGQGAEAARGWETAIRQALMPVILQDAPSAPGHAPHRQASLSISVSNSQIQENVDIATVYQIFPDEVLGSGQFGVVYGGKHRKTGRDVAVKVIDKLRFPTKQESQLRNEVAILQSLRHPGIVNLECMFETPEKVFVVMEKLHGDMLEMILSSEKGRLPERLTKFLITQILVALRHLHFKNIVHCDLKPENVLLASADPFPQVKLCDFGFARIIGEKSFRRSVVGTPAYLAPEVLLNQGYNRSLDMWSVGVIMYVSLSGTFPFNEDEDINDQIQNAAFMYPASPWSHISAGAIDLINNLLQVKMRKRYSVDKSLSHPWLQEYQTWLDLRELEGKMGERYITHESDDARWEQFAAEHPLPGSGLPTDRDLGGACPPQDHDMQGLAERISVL
# Method: All 35 described analogues were characterized in vitro via an initial screening at 1 μM against PKD2. […]
# scanning of a coomassie stained SDS-polyacrylamide gel.
# An in vitro radiometric assay was used to determine the inhibition of PKD in presence of various compounds at a […]
# determinations. Reactions were carried out in 40µl of a mixture containing 50mM Tris-HCl pH 7.4, 10mM MgCl2, 50ng of PDB stimulated GST-PKD2, 4µg/ml Syntide-2 (Sigma Aldrich, St. Louis, USA), 25µM ATP and 2µCi [γ-32P]ATP (Perkin-Elmer, Massachusetts, USA). After 10’ the reaction was stopped by spotting 30µl of the reaction on whatmann P81 filter paper. The filter papers were washed 3 times in 0.5% phosphoric acid, followed by one wash in 100% acetone. Subsequently the papers were air-dried and counted using the Tri-Carb 2810 TR scintillation counter (Perkin-Elmer). Percentage of PKD2 inhibition was determined relative to a condition where no inhibitor was added (0,1% dimethylsulfoxide (DMSO)). Graphs were plotted and IC50 values were determined using the GraphPad software package (Prism). […]
# PKD2 [2] = target: T1, PKD2; assay: Cellular screening assay using phospho-cortactin (Ser-298) as a readout; type: cell-based; conditions: HEK293T cells co-transfected with FLAG-PRKD2 and myc-CTTN; for cellular activity against PKD2 (in words): pSer-298 cortactin western blot; for inhibition at 40 µM: HEK-293T, 40 μM compound, 30 min pretreatment, 500 nM PDB 15 min, read-out: inhibition of PKD2 mediated cortactin Ser-298 phosphorylation
# Excerpt: Therefore we used a cellular assay in which we were able to specifically follow PKD mediated phosphorylation of cortactin, a known PKD substrate, at Ser-298.[15] […] Cortactin phosphorylation at Ser-298 in our assay was PKD-specific, since co-transfection of PKD and cortactin was necessary to produce an adequate signal (data not shown). We selected four compounds for further validation in a cellular assay against PKD2 (Fig. 5).
# Fig. 5 The effect of 1-NM-PP1 analogues on PKD mediated phosphorylation of cortactin at Ser-298. HEK293T cells co-transfected with FLAG-PRKD2 and myc-CTTN were pretreated with the indicated compounds for 30 min prior to stimulation with 500 nM Phorbol 12,13-dibutyrate (PDB) for 15 min. Phosphorylation of cortactin was followed via western blot using a home-made pSer-298 antibody and subsequently reprobed for total cortactin (anti-c-Myc; 9E10) and PKD (anti-FLAG M2). Quantification of pSer-298/c-Myc signals of three independent experiments is shown in the graph below. […]
# Cellular screening assay using phospho-cortactin as a readout
# HEK293T cells were seeded in a 12-well plate at 150.000 cells/well. The next day, cells were transfected with 0.5µg of pcDNA3-Myc-CTTN and 0.5µg of pdcDNA-FLAG-PRKD2. Forty-eight hours after transfection, cells were incubated with compound at the indicated concentrations for 30 min, followed by stimulation with 500nM phorbol 12,13-dibutyrate (PDB) for 15 min. Subsequently, cells were lysed in 50mM Tris pH 7.4, 15mM EDTA, 150mM NaCl, 0.1% (v/v) NP-40 and 25% (v/v) glycerol. Protein quantitation was determined via a Bradford assay. Equal amounts of lysate (30µg) were loaded on a SDS-polyacrylamide gel and subjected to immunoblotting. Blots were probed with Cortactin pSer-298 antibody (home-made) and anti-tubulin antibody (Sigma, St. Louis, Missouri). Subsequently, blots were stripped and reprobed with anti-Myc 9E10 (Sigma, St.
# Louis, Missouri) for cortactin and anti-FLAG M2 (Sigma, St. Louis, Missouri) for PKD2.
# [3] = ESI table, initial screening of all analogues at 1µM, read-out: % PKD2 activity remaining (1µM) (average ±SD)
# [4] = compound at 1 μM, PDB stimulated GST-PKD2, Syntide-2, 25µM ATP, relative to no inhibitor (DMSO), read-out: % PKD 2 activity remaining (1 μM) (Average ± SD)
# [5] = PDB stimulated GST-PKD2, Syntide-2, 25µM ATP, radiometric
remaining activity at 1 µM (PKD2 [1]; [3]) [%],remaining activity at 1 µM (PKD2 [1]; [4]) [%],IC50 (PKD2 [1]; [5]) [µM],cellular activity against PKD2 (in words) (PKD2 [2]),fold increase in potency compared to 1-NM-PP1 (PKD2 [1]; PKD2 IC50 relative to 1-NM-PP1) [fold],IC50 (PKD2 [1]; in vitro potency as stated in the conclusions) [µM],Compound,IC50 (PKD) [µM],inhibition at 40 µM (PKD2 [2]) [%]
53 ± 7.1,53 ± 7.1,2.21,did not show cellular activity,–,–,CC(C)(C)n1nc(-c2cc3ccccc3s2)c2c(N)ncnc21 [Compound 6l],–,–
89 ± 6.2,89 ± 6.2,8.17,negligible cellular activity,–,–,"CCCCNc1nc(N)c2c(-c3cccc4ccccc34)nn(C(C)(C)C)c2n1 [Compound 13h, N6-butyl-1-tert-butyl-3-(1-naphthyl)-1H-pyrazolo[3,4-d]pyrimidine-4,6-diamine]",–,–
8 ± 0.8,8 ± 0.8,0.033,dose-dependent inhibition,10,~0.033,"CC(C)(C)n1nc(-c2c[nH]c3ccccc23)c2c(N)ncnc21 [Compound 18, 1-tert-butyl-3-(1H-indol-3-yl)-1H-pyrazolo[3,4-d]pyrimidin-4-amine]",–,85

Compound,remaining activity at 1 µM (PKD2 [1]; [3]) [%],remaining activity at 1 µM (PKD2 [1]; [4]) [%],IC50 (PKD2 [1]; [5]) [µM],cellular activity against PKD2 (in words) (PKD2 [2]),fold increase in potency compared to 1-NM-PP1 (PKD2 [1]; PKD2 IC50 relative to 1-NM-PP1) [fold],IC50 (PKD2 [1]; in vitro potency as stated in the conclusions) [µM],IC50 (PKD) [µM],inhibition at 40 µM (PKD2 [2]) [%]
"CC(C)(C)n1nc(Cc2cccc3ccccc23)c2c(N)ncnc21 [Compound 1, 1-tert-butyl-3-(1-naphthylmethyl)-1H-pyrazolo[3,4-d]pyrimidin-4-amine, reference compound]",23 ± 1.7,23 ± 1.7,0.398,dose-dependent inhibition,–,–,0.133,50
